Data as given in publication PMC9395488, “First-in-human study of IM156, a novel potent biguanide oxidative phosphorylation (OXPHOS) inhibitor, in patients with advanced solid tumors” (Investigational New Drugs, 2022).

Test system: patients with advanced solid tumors
Assay: First-in-human phase 1 dose-escalation study: safety, DLTs, adverse events
Format: in vivo
Description: This multicenter first-in-human dose-escalation phase 1 study (clinicaltrials.gov identifier: NCT03272256) was designed to determine the MTD or RP2D and to evaluate the safety and tolerability of IM156. Secondary endpoints included PK characteristics, efficacy assessment (objective response rate [ORR], disease control rate [DCR], duration of response [DoR] and progression-free survival [PFS]). Furthermore, exploratory objectives included identification and profiling of IM156 metabolites, evaluations of exploratory PD markers of IM156, and evaluations of any potential relationship between putative biomarkers and safety/efficacy parameters of IM156. The study was conducted in accordance with Good Clinical Practice, the International Council for Harmonisation, and guidelines governing clinical study conduct and the ethical principles originating from the Declaration of Helsinki. The study was approved by each Institutional Review Board and patients provided written informed consent. Patients were enrolled at three sites in South Korea.
The initial dose and schedule of IM156 was chosen based on animal toxicology studies. […] IM156 was administered in the fasted state, with no food for at least 2 h before and 1 h after dosing.
Three DLT-evaluable patients were enrolled at each dose level. If there were no DLTs or other prohibitive adverse events (AEs), the Safety Committee was allowed to recommend escalation to the next highest dose level. If 1 DLT occurred in the first 3 DLT-evaluable patients, enrollment in that cohort was expanded to an additional 3 DLT-evaluable patients; if ≥ 2 DLTs were reported in a cohort, that dose was considered above the MTD.
Safety was assessed through vital signs, weight, laboratory assessments, physical examinations, electrocardiogram, and reporting of AEs as graded by the National Cancer Institute’s Common Terminology Criteria for Adverse Events v4.03 (NCI-CTCAE).
DLTs were defined as the following AEs if they were attributed as related to IM156: asymptomatic grade 4 neutropenia lasting for ≥ 5 days; febrile neutropenia, regardless of grade; grade 4 thrombocytopenia or grade 3 thrombocytopenia with bleeding; any grade ≥ 3 non-hematologic AE (except grade 3 hypertension and grade 3 nausea, vomiting or diarrhea for which proper measures for prevention and treatment were not implemented, and alopecia); blood lactate levels > 5 mmol; grade ≥ 2 AE prohibiting dosing of IM156 for ≥ 21 continuous days except for alterations in serum calcium or phosphorus levels. The safety analysis includes all patients who received at least one dose of study drug.
The safety population was defined as all patients who received at least one dose of IM156. The PK population was not defined in the protocol but included all patients with sufficient PK data to perform adequate PK modeling. The efficacy population included all patients who underwent at least one tumor imaging assessment while receiving IM156. Safety was assessed using descriptive statistics (e.g., DLTs, AEs, laboratory tests, physical examination, 12-lead ECG). The incidence and number of events were reported for the DLTs observed in Cycle 1 per dose group. […] Adverse events and TRAEs were standardized with the System Organ Class and the Preferred Term using the Medical Dictionary for Regulatory Activities v23.0. In addition, TEAEs, serious adverse events (SAEs), TEAE severity, and TEAEs leading to withdrawal were presented by dose group. Efficacy data were to be presented by Waterfall and Swim Lane plots. Time to event endpoints (e.g., DoR, PFS) were determined using Kaplan–Meier estimations with the median value for each endpoint summarized.

[1] = DL1 100 mg orally every other day (n=3)

NC(=Nc1ccc(OC(F)(F)F)cc1)N=C(N)N1CCCC1 [IM156]
SAE Abdominal distension: Causality (100 mg QOD): Unlikely | SAE Abdominal distension: Dose Interrupted (100 mg QOD): Yes | SAE Abdominal distension: Grade (100 mg QOD): 2 | SAE Abdominal distension: Outcome (100 mg QOD): Recovered without sequelae | SAE Gastric Obstruction: Causality (100 mg QOD): Unlikely | SAE Gastric Obstruction: Dose Interrupted (100 mg QOD): Yes | SAE Gastric Obstruction: Grade (100 mg QOD): 3 | SAE Gastric Obstruction: Outcome (100 mg QOD): Recovered without sequelae | SAE Ileus: Causality (200 mg QOD): Unlikely | SAE Ileus: Dose Interrupted (200 mg QOD): No | SAE Ileus: Grade (200 mg QOD): 3 | SAE Ileus: Outcome (200 mg QOD): Recovered without sequelae | SAE Cystitis: Causality (800 mg QOD): Unlikely | SAE Cystitis: Dose Interrupted (800 mg QOD): Yes | SAE Cystitis: Grade (800 mg QOD): 2 | SAE Cystitis: Outcome (800 mg QOD): Recovered without sequelae | SAE Worsen abdominal pain: Causality (800 mg QOD): Unlikely | SAE Worsen abdominal pain: Dose Interrupted (800 mg QOD): Yes | SAE Worsen abdominal pain: Grade (800 mg QOD): 3 | SAE Worsen abdominal pain: Outcome (800 mg QOD): Resolved to Grade 1 | SAE Akathisia: Causality (1,200 mg QD): Unlikely | SAE Akathisia: Dose Interrupted (1,200 mg QD): No | SAE Akathisia: Grade (1,200 mg QD): 2 | SAE Akathisia: Outcome (1,200 mg QD): Recovered without sequelae | SAE Lethargy: Causality (1,200 mg QD): Unlikely | SAE Lethargy: Dose Interrupted (1,200 mg QD): Yes | SAE Lethargy: Grade (1,200 mg QD): 2 | SAE Lethargy: Outcome (1,200 mg QD): Recovered without sequelae | SAE Perforated Appendicitis: Causality (1,200 mg QD): Unlikely | SAE Perforated Appendicitis: Dose Interrupted (1,200 mg QD): No | SAE Perforated Appendicitis: Grade (1,200 mg QD): 3 | SAE Perforated Appendicitis: Outcome (1,200 mg QD): Recovered without sequelae | tolerability (1,200 mg QD, due to nausea): not well tolerated | SAE Nausea: Causality (1,200 mg QOD): Possible | SAE Nausea: Dose Interrupted (1,200 mg QOD): Yes | SAE Nausea: Grade (1,200 mg QOD): 3 | trend of blood lactate levels with dose or exposure (100 to 1,200 mg): no trend | dose-limiting toxicities (DLTs), all dose levels (100 to 1,200 mg QOD or QD, cycle 1): no DLTs | TEAE Abdominal distension, grade 2 (DL1 100 mg QOD (n=3)): 1 | TEAE Ascites, grade 1 (DL1 100 mg QOD (n=3)): 1 | TEAE Blood creatinine increased, grade 1 (DL1 100 mg QOD (n=3)): 1 | TEAE Decreased appetite, grade 1 (DL1 100 mg QOD (n=3)): 1 | TEAE Diarrhoea, grade 2 (DL1 100 mg QOD (n=3)): 1 | TEAE Gastrointestinal pain, grade 2 (DL1 100 mg QOD (n=3)): 1 | TEAE Hypoalbuminaemia, grade 2 (DL1 100 mg QOD (n=3)): 1 | TEAE Large intestinal obstruction, grade 2 (DL1 100 mg QOD (n=3)): 1 | TEAE Nausea, grade 1 (DL1 100 mg QOD (n=3)): 1 | TEAE Obstruction gastric, grade 3 (DL1 100 mg QOD (n=3)): 1 | TEAE Proctalgia, grade 2 (DL1 100 mg QOD (n=3)): 1 | TEAE Pyrexia, grade 1 (DL1 100 mg QOD (n=3)): 1 | TEAE Vomiting, grade 1 (DL1 100 mg QOD (n=3)): 1 | TRAE Abdominal Pain, > G3 (patients) (DL1 100 mg QOD oral, N = 3): 0 | TRAE Abdominal Pain, All grades (patients) (DL1 100 mg QOD oral, N = 3): 0 | TRAE Blood Lactic Acid increased, > G3 (patients) (DL1 100 mg QOD oral, N = 3): 0 | TRAE Blood Lactic Acid increased, All grades (patients) (DL1 100 mg QOD oral, N = 3): 0 | TRAE Constipation, > G3 (patients) (DL1 100 mg QOD oral, N = 3): 0 | TRAE Constipation, All grades (patients) (DL1 100 mg QOD oral, N = 3): 0 | TRAE Decreased appetite, > G3 (patients) (DL1 100 mg QOD oral, N = 3): 0 | TRAE Decreased appetite, All grades (patients) (DL1 100 mg QOD oral, N = 3): 0 | TRAE Diarrhoea, > G3 (patients) (DL1 100 mg QOD oral, N = 3): 0 | TRAE Diarrhoea, All grades (patients) (DL1 100 mg QOD oral, N = 3): 0 | TRAE Fatigue, > G3 (patients) (DL1 100 mg QOD oral, N = 3): 0 | TRAE Fatigue, All grades (patients) (DL1 100 mg QOD oral, N = 3): 0 | TRAE Insomnia, > G3 (patients) (DL1 100 mg QOD oral, N = 3): 0 | TRAE Insomnia, All grades (patients) (DL1 100 mg QOD oral, N = 3): 0 | TRAE Nausea, > G3 (patients) (DL1 100 mg QOD oral, N = 3): 0 | TRAE Nausea, All grades (patients) (DL1 100 mg QOD oral, N = 3): 0 | TRAE Vomiting, > G3 (patients) (DL1 100 mg QOD oral, N = 3): 0 | TRAE Vomiting, All grades (patients) (DL1 100 mg QOD oral, N = 3): 0 | TEAE Adrenal insufficiency grade 1 [1]: 0 | TEAE Adrenal insufficiency grade 2 [1]: 0 | TEAE Adrenal insufficiency grade 3 [1]: 0 | TEAE Adrenal insufficiency grade 4 [1]: 0 | TEAE Anaemia grade 1 [1]: 0 | TEAE Anaemia grade 2 [1]: 1 | TEAE Anaemia grade 3 [1]: 0 | TEAE Anaemia grade 4 [1]: 0 | TEAE Appendicitis perforated grade 1 [1]: 0 | TEAE Appendicitis perforated grade 2 [1]: 0 | TEAE Appendicitis perforated grade 3 [1]: 0 | TEAE Appendicitis perforated grade 4 [1]: 0 | TEAE Back pain grade 1 [1]: 0 | TEAE Back pain grade 2 [1]: 0 | TEAE Back pain grade 3 [1]: 0 | TEAE Back pain grade 4 [1]: 0 | TEAE Cystitis grade 1 [1]: 0 | TEAE Cystitis grade 2 [1]: 0 | TEAE Cystitis grade 3 [1]: 0 | TEAE Cystitis grade 4 [1]: 0 | TEAE Dry skin grade 1 [1]: 0 | TEAE Dry skin grade 2 [1]: 0 | TEAE Dry skin grade 3 [1]: 0 | TEAE Dry skin grade 4 [1]: 0 | TEAE Flank pain grade 1 [1]: 0 | TEAE Flank pain grade 2 [1]: 0 | TEAE Flank pain grade 3 [1]: 0 | TEAE Flank pain grade 4 [1]: 0 | TEAE Hypertension grade 1 [1]: 0 | TEAE Hypertension grade 2 [1]: 0 | TEAE Hypertension grade 3 [1]: 0 | TEAE Hypertension grade 4 [1]: 0 | TEAE Hypotension grade 1 [1]: 0 | TEAE Hypotension grade 2 [1]: 0 | TEAE Hypotension grade 3 [1]: 0 | TEAE Hypotension grade 4 [1]: 0 | TEAE Insomnia grade 1 [1]: 0 | TEAE Insomnia grade 2 [1]: 0 | TEAE Insomnia grade 3 [1]: 0 | TEAE Insomnia grade 4 [1]: 0 | TEAE Pain in extremity grade 1 [1]: 0 | TEAE Pain in extremity grade 2 [1]: 0 | TEAE Pain in extremity grade 3 [1]: 0 | TEAE Pain in extremity grade 4 [1]: 0 | TEAE Pruritus grade 1 [1]: 0 | TEAE Pruritus grade 2 [1]: 0 | TEAE Pruritus grade 3 [1]: 0 | TEAE Pruritus grade 4 [1]: 0
